This passage reports IC50 results from US20230339891A1, “URACIL DERIVATIVES AS MER-AXL INHIBITORS” (BRISTOL-MYERS SQUIBB COMPANY, priority 2018, published 2023).

Usually IC50 stands for the concentration that inhibits the measured activity by half.

For one assay, the target named is GST-MERTK 578-872 (Homo sapiens (Human), UniProt Q12866). Put plainly: MERTK kinase homogeneous time resolved fluorescence (HTRF) binding assay. The settings on record: 1 nM kinase, fluorescein-labeled kinase tracer at Kd, 60 minutes at room temperature; read-out: Mer HTRF IC50. How it is done:
(§1) MERTK, AXL, TYRO3 Kinase Homogeneous Time Resolved Fluorescence (HTRF) Assay
(§2) Assays were performed in black, flat-bottom, 1536-well plates. The reactions were incubated at room temperature for 60 minutes, following which the HTRF signals, ratio of fluorescence intensities at emission wavelengths for fluorescein acceptor (520 nm) and terbium donor (495 nm), the 520/495 ratio, were measured on the Envision Plate reader. Inhibition data were calculated from the 520/495 ratio generated by the no protein control reactions for 100% inhibition and vehicle-only reactions for 0% inhibition, and dose response curves generated to determine the concentration required for inhibiting 50% of the HTRF signal (IC50). Compounds were dissolved at 10 mM in dimethylsulfoxide (DMSO) and evaluated at eleven concentrations.
Background: TR-FRET usually uses a lanthanide donor and a delayed reading to cut background.

A further assay addresses HIS-AXL 473-End (Homo sapiens (Human), UniProt P30530). Put plainly: AXL kinase homogeneous time resolved fluorescence (HTRF) binding assay. The settings on record: 1 nM kinase, fluorescein-labeled kinase tracer at Kd, 60 minutes at room temperature. How it is done: as §1, §2

Sequence of GST-MERTK 578-872 (Q12866 578-872): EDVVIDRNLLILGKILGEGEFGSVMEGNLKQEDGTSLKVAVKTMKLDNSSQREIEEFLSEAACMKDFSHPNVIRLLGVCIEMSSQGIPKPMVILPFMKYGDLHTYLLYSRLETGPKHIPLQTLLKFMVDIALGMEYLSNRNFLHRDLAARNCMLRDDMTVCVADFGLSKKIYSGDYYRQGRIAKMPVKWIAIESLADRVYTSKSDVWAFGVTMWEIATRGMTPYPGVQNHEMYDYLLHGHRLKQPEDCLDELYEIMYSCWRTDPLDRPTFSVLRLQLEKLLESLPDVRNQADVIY
Sequence of HIS-AXL 473-End (P30530 473-894): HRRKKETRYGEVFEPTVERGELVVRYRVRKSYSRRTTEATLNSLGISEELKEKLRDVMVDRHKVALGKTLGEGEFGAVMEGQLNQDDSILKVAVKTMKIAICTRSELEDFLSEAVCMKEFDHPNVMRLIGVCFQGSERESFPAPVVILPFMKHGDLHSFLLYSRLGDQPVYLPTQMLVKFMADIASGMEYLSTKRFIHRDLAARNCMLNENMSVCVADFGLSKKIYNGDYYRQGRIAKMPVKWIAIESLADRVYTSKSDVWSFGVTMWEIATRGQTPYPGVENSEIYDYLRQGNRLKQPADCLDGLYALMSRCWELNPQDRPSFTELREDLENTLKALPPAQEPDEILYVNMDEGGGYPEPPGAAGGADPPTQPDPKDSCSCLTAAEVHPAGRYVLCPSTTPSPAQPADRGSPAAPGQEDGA

On to `CC(C)n1cc(C(=O)Nc2ccc(Oc3ccnc(Nc4ccc(C(=O)N(C)C)c(N5CCN(S(C)(=O)=O)CC5)n4)c3)c(F)c2)c(=O)n(-c2ccc(F)cc2)c1=O` [Example 97, N-{4-[(2-{[5-(Dimethylcarbamoyl)-6-(4-methanesulfonylpiperazin-1-yl)pyridin-2-yl]amino}pyridin-4-yl)oxy]-3-fluorophenyl}-3-(4-fluorophenyl)-2,4-dioxo-1-(propan-2-yl)-1,2,3,4-tetrahydropyrimidine-5-carboxamide], for which the IC50 on GST-MERTK 578-872 came to 1 nM; on HIS-AXL 473-End it was 0.3 nM.
For `CC(C)n1cc(C(=O)Nc2ccc(Oc3ccnc(Nc4ccn(C(F)F)n4)c3)c(F)c2)c(=O)n(-c2ccc(F)cc2)c1=O` [Example 35, N-{4-[(2-{[1-(Difluoromethyl)-1H-pyrazol-3-yl]amino}pyridin-4-yl)oxy]-3-fluorophenyl}-3-(4-fluorophenyl)-2,4-dioxo-1-(propan-2-yl)-1,2,3,4-tetrahydropyrimidine-5-carboxamide] the same measures were 4.3 nM and 0.8 nM.
As to `CC(C)n1cc(C(=O)Nc2ccc(Oc3ccnc(Nc4ccc(C(F)F)cn4)c3)c(F)c2)c(=O)n(-c2ccc(F)cc2)c1=O` [Example 10], the IC50 at GST-MERTK 578-872 is 43 nM; on HIS-AXL 473-End, 15 nM.
For the molecule `CC(C)n1cc(C(=O)Nc2ccc(Oc3ccnc(Nc4ccc(S(=O)(=O)N(C)C)c(N(C)C)n4)c3)c(F)c2)c(=O)n(-c2ccc(F)cc2)c1=O` [Example 98, N-{4-[(2-{[6-(dimethylamino)-N,N-(dimethylsulfamoyl)pyridin-2-yl]amino}pyridin-4-yl)oxy]-3-fluorophenyl}-3-(4-fluorophenyl)-2,4-dioxo-1-(propan-2-yl)-1,2,3,4-tetrahydropyrimidine-5-carboxamide], the figures for the IC50 at GST-MERTK 578-872 and on HIS-AXL 473-End were 22 nM and 36 nM, respectively.
For `CS(=O)(=O)C1CCN(c2nccc(Nc3cc(Oc4ccc(NC(=O)c5cn(C6CC6)c(=O)n(-c6ccc(F)cc6)c5=O)cc4F)ccn3)n2)CC1` [Example 112, 1-cyclopropyl-N-{3-fluoro-4-[(2-{[2-(4-methanesulfonylpipedidin-1-yl)pyrimidin-4-yl]amino}pyridin-4-yl)oxy]phenyl}-3-(4-fluorophenyl)-2,4-dioxo-1,2,3,4-tetrahydropyrimidine-5-carboxamide], the IC50 on GST-MERTK 578-872 came out at 4.1 nM; at HIS-AXL 473-End, 0.8 nM.
For `CC(C)NS(=O)(=O)c1ccc(Nc2cc(Oc3ccc(NC(=O)c4cn(C(C)C)c(=O)n(-c5ccc(F)cc5)c4=O)cc3F)ccn2)nc1` [Example 78], in that order: 9.8 nM and 986 nM.
For `Cc1ccc(-n2c(=O)c(C(=O)Nc3ccc(Oc4ccnc(Nc5ccc(S(=O)(=O)N(C)C)cn5)c4)c(F)c3)cn(C(C)C)c2=O)cc1` [Example 62, N-{4-[(2-{[5-(Dimethylsulfamoyl)pyridin-2-yl]amino}pyridin-4-yl)oxy]-3-fluorophenyl}-3-(4-methylphenyl)-2,4-dioxo-1-(propan-2-yl)-1,2,3,4-tetrahydropyrimidine-5-carboxamide], in that order: 23 nM and 4.6 nM.
With `CC(C)n1cc(C(=O)Nc2ccc(Oc3ccnc(Nc4ccnc(N5CCCC5)n4)c3)c(F)c2)c(=O)n(-c2ccc(F)cc2)c1=O` [Example 103, N-{3-fluoro-4-[(2-{[2-(pyrrolidin-1-yl)pyrimidin-4-yl]amino}pyridin-4-yl)oxy]phenyl}-3-(4-fluorophenyl)-2,4-dioxo-1-(propan-2-yl)-1,2,3,4-tetrahydropyrimidine-5-carboxamide], the results for the IC50 at GST-MERTK 578-872 and at HIS-AXL 473-End were 0.6 nM and 0.7 nM, respectively.
Take `CC(C)n1cc(C(=O)Nc2ccc(Oc3ccnc(Nc4ccnc(N5CCCC5)n4)c3)c(F)c2)c(=O)n(C2CCCCC2)c1=O` [Example 109]: the values for the half-maximal inhibitory concentration (IC50) at GST-MERTK 578-872 and on HIS-AXL 473-End were 70 nM and 62 nM, respectively.
With `CC(C)n1cc(C(=O)Nc2ccc(Oc3ccnc(Nc4ccc(C(F)(F)F)c(N5CCN(S(C)(=O)=O)CC5)n4)c3)c(F)c2)c(=O)n(-c2ccc(F)cc2)c1=O` [Example 138, N-{3-fluoro-4-[(2-{[6-(4-methanesulfonylpiperazin-1-yl)-5-(trifluoromethyl)pyridin-2-yl]amino}pyridin-4-yl)oxy]phenyl}-3-(4-fluorophenyl)-2,4-dioxo-1-(propan-2-yl)-1,2,3,4-tetrahydropyrimidine-5-carboxamide], the IC50 came out at 20 nM at GST-MERTK 578-872 and 23 nM at HIS-AXL 473-End.
For `CC(C)n1cc(C(=O)Nc2ccc(Oc3ccnc(Nc4ncc(C(F)(F)F)cc4F)c3)c(F)c2)c(=O)n(-c2ccc(F)cc2)c1=O` [Example 12], the IC50 amounted to 228 nM at GST-MERTK 578-872 and 55 nM on HIS-AXL 473-End.
For `Cc1cnc(Nc2cc(Oc3ccc(NC(=O)c4cn(C(C)C)c(=O)n(-c5ccc(F)cc5)c4=O)cc3F)ccn2)nc1` [Example 31], in that order: 158 nM and 7.5 nM.
On to `CC(C)n1cc(C(=O)Nc2ccc(Oc3ccnc(Nc4ccc(N5CCN(C(C)(C)C)C5=O)cn4)c3)c(F)c2)c(=O)n(-c2ccc(F)cc2)c1=O` [Example 91], for which the IC50 at GST-MERTK 578-872 was 72 nM; at HIS-AXL 473-End it was 38 nM.
Regarding `COC1CCN(c2nc(Nc3cc(Oc4ccc(NC(=O)c5cn(C(C)C)c(=O)n(-c6ccc(F)cc6)c5=O)cc4F)ccn3)ccc2C#N)CC1` [Example 121], the 50% inhibitory concentration (IC50) is 2.4 nM on GST-MERTK 578-872 and 3.9 nM at HIS-AXL 473-End.
With `Cc1cnc(Nc2cc(Oc3ccc(NC(=O)c4cn(C(C)C)c(=O)n(-c5ccc(F)cc5)c4=O)cc3F)ccn2)nc1N1CCN(S(C)(=O)=O)CC1` [Example 137, N-(3-fluoro-4-[(2-{[4-(4-methanesulfonylpiperazin-1-yl)-5-methylpyrimidin-2-yl]amino}pyridin-4-yl)oxy]phenyl)-3-(4-fluorophenyl)-2,4-dioxo-1-(propan-2-yl)-1,2,3,4-tetrahydropyrimidine-5-carboxamide], the IC50 worked out at 3.6 nM on GST-MERTK 578-872 and 3.4 nM on HIS-AXL 473-End.
For the molecule `O=C(Nc1ccc(Oc2ccnc(Nc3ccnc(N4CCCC4)n3)c2)c(F)c1)c1cn(C2CC2)c(=O)n(-c2ccc(F)cc2)c1=O` [Example 105], the half-inhibitory concentration (IC50) was determined as 1.4 nM on GST-MERTK 578-872 and 2.3 nM at HIS-AXL 473-End.
Turning to `CC(C)n1cc(C(=O)Nc2ccc(Oc3ccnc(Nc4ccc(S(=O)(=O)N(C)C)cn4)c3)c(F)c2)c(=O)n(-c2cccc(C(F)(F)F)c2)c1=O` [Example 72], the half-inhibitory concentration (IC50) turned out to be 119 nM at GST-MERTK 578-872 and 90 nM at HIS-AXL 473-End.
Take `CC(C)n1cc(C(=O)Nc2ccc(Oc3ccnc(Nc4ccc(S(C)(=O)=O)cn4)c3)c(F)c2)c(=O)n(-c2ccc(F)cn2)c1=O` [Example 37, N-[3-Fluoro-4-({2-[(5-methanesulfonylpyridin-2-yl)amino]pyridin-4-yl}oxy)phenyl]-3-(5-fluoropyridin-2-yl)-2,4-dioxo-1-(propan-2-yl)-1,2,3,4-tetrahydropyrimidine-5-carboxamide]: the IC50 at GST-MERTK 578-872 turned out to be 14 nM; on HIS-AXL 473-End, 2.6 nM.
Turning to `CCOc1cnc(Nc2cc(Oc3ccc(NC(=O)c4cn(C(C)C)c(=O)n(-c5ccc(F)cc5)c4=O)cc3F)ccn2)cn1` [Example 29], the half-maximal inhibitory concentration (IC50) was determined as 182 nM on GST-MERTK 578-872 and 7.2 nM on HIS-AXL 473-End.
In the case of `CC(C)n1cc(C(=O)Nc2ccc(Oc3ccnc(Nc4ccc(C#N)c(N5CC[C@H](O)C5)n4)c3)c(F)c2)c(=O)n(-c2ccc(F)cc2)c1=O` [Example 118], the IC50 is 1.5 nM at GST-MERTK 578-872 and 1.4 nM at HIS-AXL 473-End.
Turning to `CC(C)n1cc(C(=O)Nc2ccc(Oc3ccnc(Nc4ccc(C(=O)NS(=O)(=O)C(C)C)cn4)c3)c(F)c2)c(=O)n(-c2ccc(F)cc2)c1=O` [Example 96], the results for the IC50 at GST-MERTK 578-872 and on HIS-AXL 473-End were 2.9 nM and 0.7 nM, respectively.
For the molecule `CC(C)n1cc(C(=O)Nc2ccc(Oc3ccnc(Nc4ccc(S(=O)(=O)N(C)C)cn4)c3)c(F)c2)c(=O)n(C2CCCCC2)c1=O` [Example 53], the IC50 came to 487 nM on GST-MERTK 578-872 and 256 nM on HIS-AXL 473-End.
In the case of `O=C(Nc1ccc(Oc2ccnc(Nc3ccc(Cl)cn3)c2)c(F)c1)c1cn(C2CC2)c(=O)n(-c2ccc(F)cc2)c1=O` [Example 36, N-[4-({2-[(5-chloropyridin-2-yl)amino]pyridin-4-yl}oxy)-3-fluorophenyl]-1-cyclopropyl-3-(4-fluorophenyl)-2,4-dioxo-1,2,3,4-tetrahydropyrimidine-5-carboxamide], the IC50 on GST-MERTK 578-872 was found to be 38 nM; at HIS-AXL 473-End, 11 nM.
Take `CC(C)n1cc(C(=O)Nc2ccc(Oc3ccnc(Nc4ccc(N5CCCC5=O)cn4)c3)c(F)c2)c(=O)n(-c2ccc(F)cc2)c1=O` [Example 88, N-{3-fluoro-4-[(2-{[5-(2-oxopyrrolidin-1-yl)pyridin-2-yl]amino}pyridin-4-yl)oxy]phenyl}-3-(4-fluorophenyl)-2,4-dioxo-1-(propan-2-yl)-1,2,3,4-tetrahydropyrimidine-5-carboxamide]: the IC50 at GST-MERTK 578-872 was found to be 5.6 nM; on HIS-AXL 473-End it was 3.3 nM.
In the case of `CC(C)n1cc(C(=O)Nc2ccc(Oc3ccnc(Nc4ccnc(N5CCCC5)n4)c3)c(F)c2)c(=O)n(C23CC(C2)C3)c1=O` [Example 104, 3-(Bicyclo[1.1.1]pentan-1-yl)-N-(3-fluoro-4-((2-((2-(pyrrolidin-1-yl)pyrimidin-4-yl)amino)pyridin-4-yl)oxy)phenyl)-1-isopropyl-2,4-dioxo-1,2,3,4-tetrahydropyrimidine-5-carboxamide], the IC50 at GST-MERTK 578-872 is 3.9 nM; at HIS-AXL 473-End, 3.1 nM.
For `CN(C)S(=O)(=O)c1ccc(Nc2cc(Oc3ccc(NC(=O)c4cn([C@@H]5CCOC5)c(=O)n(-c5ccc(F)cc5)c4=O)cc3F)ccn2)nc1` [Example 46], in that order: 12 nM and 5.4 nM.
In the case of `Cc1cccc(-n2c(=O)c(C(=O)Nc3ccc(Oc4ccnc(Nc5ccc(S(=O)(=O)N(C)C)cn5)c4)c(F)c3)cn(C(C)C)c2=O)c1` [Example 70], the IC50 at GST-MERTK 578-872 and on HIS-AXL 473-End was 14 nM each time.
